Laboratory results from patent US8415376B2, “Inhibitors of PI3 kinase” (Amgen Inc., priority 2008, dated 2013).

Columns and labels:
mTOR = target: T1, mTOR (Homo sapiens, UniProt P42345); experiment: In vitro mTOR assay (Lanthascreen); format: biochemical; details: average if run more than once
T1 construct: purchased Invitrogen (Carlsbad, Calif.)
Description: The Invitrogen (Carlsbad, Calif.) mammalian target of rapamycin (mTOR) Lanthascreen assay can be used to quantitate mTOR kinase activity in an in vitro setting. Active mTOR phosphorylates eukaryotic translation initiation factor 4E binding protein 1 (4E-BP1) on residue threonine 46. This phosphorylation event can be detected with a phospho-specific terbium (Tb) labeled Ab, in turn bringing the Tb label in close proximity to the GFP tagged 4E-BP1 and allowing for time-resolved fluorescence resonance energy transfer (TR-FRET), which correlates 4E-BP1 phosphorylation levels with mTOR kinase activity.
Enzyme reaction buffer can be prepared in deionized water containing 50 mM HEPES (pH 7.5), 0.01% Polysorbate 20, 1 mM EGTA, and 10 mM MnCl2.
Dilutions of the compound to be tested can be prepared in 96-well polypropylene plates (Fisher Scientific, Waltham, Mass.). One row represents a 10-point dose of compound diluted 1:3 in enzyme reaction buffer and 20% dimethyl sulfoxide (DMSO). The top concentration for all compounds is 36 μM. Wells 6 and 12 can serve as the no compound (DMSO only) and high compound controls.
An mTOR substrate solution can prepared in enzyme reaction buffer containing 1600 nM green fluorescent protein tagged eukaryotic translation initiation factor 4E binding protein 1 (GFP-4E-BP1) (Invitrogen, Carlsbad, Calif.) and 28 uM adenosine triphosphate (ATP) (Calbiochem, Gibbstown, N.J.).
mTOR enzyme (Invitrogen, Carlsbad, Calif.) can be diluted in enzyme reaction buffer to a working concentration of 100 ng/mL.
The enzyme assay can be run in 384 well low volume assay plates (Corning, Corning, N.Y.). 2.5 uL of substrate solution containing GFP-4E-BP1 and ATP can be added to appropriate wells in the assay plate followed by 2.5 μL of compound dilutions. 5 μL of appropriately diluted mTOR enzyme can be added and the reaction allowed to proceed for 1 hour at room temperature. Final reagent concentrations in the enzyme assay are 50 ng/mL mTOR, 400 nM GFP-4E-BP1, and 7 μM ATP.
The enzyme assay can be terminated upon the addition of 10 μL of 20 mM EDTA and 4 nM Tb-labeled anti-phospho-4E-BP1 [T46] antibody (Invitrogen, Carlsbad, Calif.). The assay plate can then be incubated at room temperature for 1 hour and results read on a Tecan Safire II plate reader (Tecan, Männedorf, Switzerland).

[1] = test system: phosphorylation of Akt at Serine 473; experiment: pAkt AlphaScreen (U87 cell); format: cell-based; details: Homo sapiens, U-87 MG; U87 MG cells, pAkt Ser473; average
Method: pAkt Alphascreen (U87 Cell)
The pAkt AlphaScreen® assay (PerkinElmer, Waltham, Mass.) determines whether there is phosphorylation of Akt at Serine 473 by recruitment of a phosphospecific antibody. This assay was performed using U87 MG cells. The U87 growth media consists of MEM (Gibco, Carlsbad, Calif.) supplemented with 10% FBS (Gibco,), 1× Non-Essential Amino Acids (Gibco,) and 1× Penicillin/Streptomycin/Glutamine (Gibco). The cells were maintained weekly using 0.05% Trypsin (Gibco) and replated in 150 mm TC-Treated Culture Dishes (Corning, Corning, N.Y.).
The first day of the assay, the adherent cells were trypsinized, media was added to the loose cells and cells were mixed to a homogenous mixture. 0.5 ml of the homogenous mixture was counted on the Beckman Coulter® Vi-CELL™ XR (Fullerton, Calif.). 50 frames of cells were counted and the number of viable cells was determined. The cells were then diluted to 0.25 million cells per ml, and centrifuged at 200 rcf for 5 minutes. The media was removed and the cells were reconstituted in fresh media for plating. The cells were plated at 20 μl per well on the PerkinElmer® FlexDrop PLUS in Low Volume 384 Well White Tissue Culture Plates (Corning) with a final cell density of 5K cells per well. The plates were incubated overnight at 37° Celsius, 5% CO2.
On the second day, the compound plates were prepared, the cells were treated with compound and the pAkt reaction mix was added to the cell lysate. 384 well compound plates were prepared containing 1 μl of compound per well starting at 5 mM and diluted 1:2 across the row, resulting in a 22 well serial dilution. 39 μl of growth media was added to the compound plate in rows 1-22 using the PerkinElmer® FlexDrop PLUS resulting in a DMSO concentration of 2.5%. The cell plates and diluted compound plates were put onto the VELOCITY11™ VPREP™ 384 ST where the compound plate was mixed and 5 μl of serially diluted compound or controls was added to the cell plate. The final concentration of the compounds was 25 μM serially diluted to 11.9 pM in 0.5% DMSO. The cell plates were then incubated with compound for two hours at 37° Celsius, 5% CO2. After two hours, the media in the cell plates was aspirated using the BioTek® ELx405HT plate washer (Winooski, Vt.) removing the majority of media and compound without disturbing the adherent U87 cells. The following assay reagents are components of the SureFire® Akt (Ser 473) Phosphorylation 50K Point Kit (TGR BioSciences, Adelaide, Austalia) and an IgG Detection Kit (PerkinElmer, Waltham, Mass.). 5 μl of 1× Lysis Buffer was added to each well using the PerkinElmer® FlexDrop PLUS. The plates were then incubated at room temperature on a shaker for ten minutes. The AlphaScreen® reaction was prepared under low light conditions (subdued or green light) including p-Akt (Ser 473) Reaction Buffer, Dilution Buffer, Activation Buffer, Acceptor Beads and Donor Beads at a ratio of 40:20:10:1:1 respectively. The AlphaScreen® reaction was added to the cell lysate at 6 μl per well using the PerkinElmer® FlexDrop PLUS. The plates were placed in a humid environment to reduce edge effects and incubated overnight at room temperature with restricted air flow in the dark.
On the final day of the experiment, the plates were read on the PerkinElmer® EnVision™ 2103 Multilable Reader using the standard AlphaScreen® readout. The POC is calculated and the data is analyzed to report the IC50 IP for pAkt at Serine 473.
Activity data for the compounds tested in the PI3K cell based Akt assay is provided in Table 2 under the column heading U87

PI3Kα = target: T2, PI3Kα (Homo sapiens, UniProt P42336); experiment: In vitro PI3K AlphaScreen assay; format: biochemical; details: average if run more than once
T2 construct: Full length p110 subunits of PI3K α, β and δ, N-terminally labeled with polyHis tag; polyHis (N); made in house; host or cells: Sf9 insect cells (baculovirus)
T2 sequence (P42336 whole entry): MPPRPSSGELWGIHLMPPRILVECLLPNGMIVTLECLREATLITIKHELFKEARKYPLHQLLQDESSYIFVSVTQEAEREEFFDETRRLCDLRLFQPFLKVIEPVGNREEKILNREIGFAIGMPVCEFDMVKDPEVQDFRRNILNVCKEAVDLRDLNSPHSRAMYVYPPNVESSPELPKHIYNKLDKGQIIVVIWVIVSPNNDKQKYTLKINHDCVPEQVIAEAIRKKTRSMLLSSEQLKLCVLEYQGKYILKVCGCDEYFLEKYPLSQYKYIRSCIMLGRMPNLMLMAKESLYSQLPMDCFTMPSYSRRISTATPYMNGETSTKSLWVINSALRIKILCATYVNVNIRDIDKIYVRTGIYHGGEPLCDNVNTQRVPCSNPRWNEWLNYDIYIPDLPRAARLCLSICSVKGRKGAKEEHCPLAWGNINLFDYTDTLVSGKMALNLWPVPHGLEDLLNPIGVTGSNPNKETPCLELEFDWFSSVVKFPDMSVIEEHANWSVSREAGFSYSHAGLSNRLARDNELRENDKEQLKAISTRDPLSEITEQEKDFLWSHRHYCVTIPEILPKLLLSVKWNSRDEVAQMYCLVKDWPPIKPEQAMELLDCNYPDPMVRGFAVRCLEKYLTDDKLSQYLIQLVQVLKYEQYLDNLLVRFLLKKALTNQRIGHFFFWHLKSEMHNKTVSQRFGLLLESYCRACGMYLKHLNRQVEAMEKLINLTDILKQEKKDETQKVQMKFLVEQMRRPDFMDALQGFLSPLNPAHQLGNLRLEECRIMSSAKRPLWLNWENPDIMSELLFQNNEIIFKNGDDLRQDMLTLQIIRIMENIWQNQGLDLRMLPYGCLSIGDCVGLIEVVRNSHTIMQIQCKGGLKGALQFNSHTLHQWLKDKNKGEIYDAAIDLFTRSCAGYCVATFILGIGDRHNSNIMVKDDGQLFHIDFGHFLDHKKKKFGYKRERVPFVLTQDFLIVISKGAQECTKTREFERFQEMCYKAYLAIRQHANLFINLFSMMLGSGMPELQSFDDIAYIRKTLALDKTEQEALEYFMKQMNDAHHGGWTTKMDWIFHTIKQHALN
T2 sequence (P27986 whole entry partner): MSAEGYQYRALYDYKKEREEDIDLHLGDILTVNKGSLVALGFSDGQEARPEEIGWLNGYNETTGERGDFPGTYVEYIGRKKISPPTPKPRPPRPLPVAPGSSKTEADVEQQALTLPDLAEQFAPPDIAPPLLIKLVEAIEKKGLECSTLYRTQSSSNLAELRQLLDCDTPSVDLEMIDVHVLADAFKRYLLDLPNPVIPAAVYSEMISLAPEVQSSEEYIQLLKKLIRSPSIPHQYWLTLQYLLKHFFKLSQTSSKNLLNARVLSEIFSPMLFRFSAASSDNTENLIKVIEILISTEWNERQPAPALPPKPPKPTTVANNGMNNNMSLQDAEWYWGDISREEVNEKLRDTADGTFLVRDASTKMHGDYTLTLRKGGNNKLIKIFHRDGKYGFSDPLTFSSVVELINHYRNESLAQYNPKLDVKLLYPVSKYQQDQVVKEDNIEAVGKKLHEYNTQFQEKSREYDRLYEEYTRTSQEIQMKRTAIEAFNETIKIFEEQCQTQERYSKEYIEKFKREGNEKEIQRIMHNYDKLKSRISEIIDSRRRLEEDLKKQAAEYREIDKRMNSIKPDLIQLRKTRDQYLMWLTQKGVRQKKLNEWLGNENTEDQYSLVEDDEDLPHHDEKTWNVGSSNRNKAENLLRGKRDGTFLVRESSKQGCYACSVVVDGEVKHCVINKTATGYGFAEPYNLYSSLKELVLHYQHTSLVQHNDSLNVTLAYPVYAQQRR
Method: In Vitro PI3K Alphascreen® Assay
The PI3K AlphaScreen® assay (PerkinElmer, Waltham, Mass.) measures the activity of a panel of four phosphoinositide 3-kinases: PI3Kα, PI3Kβ, PI3Kγ, and PI3Kδ. Each of these enzymes phosphorylates the 3′-hydroxyl group on phosphatidylinositiol (4,5)-bisphosphate (PIP2) to produce phosphatidylinositol (3,4,5)-trisphosphate (PIP3). This phosphorylation activity is measured using a GST-tagged PIP3 binding protein (Echelon Biosciences, Salt Lake City, Utah), an anti-GST-tagged Acceptor bead, and streptavidin-Donor bead. […] In the absence of this interaction, proximity of the Donor and Acceptor beads is decreased, producing a loss of luminescent signal which is inversely proportional to PI3K activity.
The enzyme reaction buffer is made using sterile water (Baxter, Deerfield, Ill.) and 50 mM Tris HCl pH 7, 14 mM MgCl2, 2 mM sodium cholate, and 100 mM NaCl. 2 mM DTT is added fresh the day of the experiment. The AlphaScreen® reaction buffer is made using sterile water and 10 mM Tris HCl pH 7.5, 150 mM NaCl, 0.10% Tween 20, and 30 mM EDTA. 1 mM DTT is added fresh the day of the experiment.
The source plates for this assay are 384-well Greiner clear polypropylene plates containing test compounds at 5mM and diluted 1:2 over 22 points. […] Source plates are replicated into 384-well Optiplates (PerkinElmer, Waltham, Mass.), 0.5 μL/well, to make assay-ready plates.
The different PI3K isoforms are each diluted in enzyme reaction buffer to 2× working solutions. […] Two different 2× substrate solutions are made in enzyme reaction buffer. In one solution, PI(4,5)P2 (Echelon Biosciences, Salt Lake City, Utah) is diluted to 10 μM and ATP is diluted to 20 μM. This solution is used in the assays testing PI3Kα and PI3Kβ. In a second solution, PI(4,5)P2 is diluted to 10 μM and ATP is diluted to 8 μM. This solution used in the assays testing PI3Kγ and PI3Kδ.
The AlphaScreen® reaction solutions are made using beads from the anti-GST AlphaScreen® kit (PerkinElmer, Waltham, Mass.). Two solutions are made in Alphascreen reaction buffer to 4× working concentrations. In one solution, biotinylated-IP4 (Echelon Biosciences, Salt Lake City, Utah) is diluted to 40 nM and streptavadin-Donor Beads are diluted to 80 μg/mL. In the second solution, PIP3-binding protein (Echelon Biosciences, Salt Lake City, Utah) is diluted to 40 nM and anti-GST-Acceptor Beads are diluted to 80 μg/mL. 10 μL/well of enzyme reaction buffer is added to Column 24 of the assay ready plates in place of enzyme. This is done for plates in the PI3Kα, β, and 67 assays.
Using a 384-well dispensing Multidrop (Titertek, Huntsville, Ala.), 10 μL/well of 2× enzyme (PI3Kα, β, δ) is added to Columns 1-23 of the appropriate assay ready plates (for PI3Kγ 10 μL is added to Columns 1-24). 10 μL/well of the appropriate substrate solution (the solution with 20 μM ATP for PI3Kα and β assays, and the solution with 8 μM ATP for PI3Kγ and δ assays) is then added to Columns 1-24 of the plates. Plates are then incubated at room temperature for 20 minutes.
In the dark, 10 μL/well of the Donor Bead solution is added to Columns 1-24 of the plates to quench the enzyme reaction. The plates are incubated at room temperature for 30 minutes. Still in the dark, 10 μL/well of the Acceptor Bead solution is also added to Columns 1-24 of the plates. The plates are then incubated in the dark for 1.5 hours. The plates are read on an Envision Multilabel Plate Reader (PerkinElmer, Waltham, Mass.) with a 680 nm excitation filter and a 520-620 nm emission filter.

T1 sequence (P42345 1360-2549 limits assumed): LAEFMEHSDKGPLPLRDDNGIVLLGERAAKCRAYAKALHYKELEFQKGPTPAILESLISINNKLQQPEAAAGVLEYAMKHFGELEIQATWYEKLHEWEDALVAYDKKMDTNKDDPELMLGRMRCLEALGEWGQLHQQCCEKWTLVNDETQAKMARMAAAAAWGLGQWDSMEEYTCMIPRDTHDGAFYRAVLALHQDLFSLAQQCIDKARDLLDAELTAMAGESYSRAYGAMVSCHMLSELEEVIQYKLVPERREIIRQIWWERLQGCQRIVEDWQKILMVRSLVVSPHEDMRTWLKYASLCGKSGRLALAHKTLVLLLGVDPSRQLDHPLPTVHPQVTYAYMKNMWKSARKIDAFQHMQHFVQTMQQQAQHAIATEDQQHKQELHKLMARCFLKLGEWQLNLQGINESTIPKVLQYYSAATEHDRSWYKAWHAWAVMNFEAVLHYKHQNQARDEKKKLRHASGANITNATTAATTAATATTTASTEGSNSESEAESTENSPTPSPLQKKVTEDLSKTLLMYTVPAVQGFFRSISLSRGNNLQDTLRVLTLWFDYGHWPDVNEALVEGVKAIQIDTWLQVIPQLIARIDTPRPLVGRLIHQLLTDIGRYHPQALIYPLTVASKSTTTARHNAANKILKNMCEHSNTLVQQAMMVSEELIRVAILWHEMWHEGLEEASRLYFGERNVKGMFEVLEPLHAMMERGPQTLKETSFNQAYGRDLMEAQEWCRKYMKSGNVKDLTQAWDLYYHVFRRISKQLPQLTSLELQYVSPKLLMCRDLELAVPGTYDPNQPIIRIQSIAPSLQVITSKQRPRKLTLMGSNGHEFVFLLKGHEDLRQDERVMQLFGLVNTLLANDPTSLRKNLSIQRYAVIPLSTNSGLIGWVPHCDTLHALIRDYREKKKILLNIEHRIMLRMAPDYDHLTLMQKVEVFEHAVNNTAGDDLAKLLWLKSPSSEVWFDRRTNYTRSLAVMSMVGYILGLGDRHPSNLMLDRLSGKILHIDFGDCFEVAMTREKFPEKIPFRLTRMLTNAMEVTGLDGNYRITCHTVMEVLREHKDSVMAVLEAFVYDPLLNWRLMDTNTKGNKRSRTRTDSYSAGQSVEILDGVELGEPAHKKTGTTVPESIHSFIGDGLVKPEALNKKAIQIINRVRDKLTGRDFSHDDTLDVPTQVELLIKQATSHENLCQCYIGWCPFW

## C[C@@H]1CN(c2ccnc3ccc(-c4cnc(Cl)c(NS(C)(=O)=O)c4)cc23)C[C@@H](C)O1 (racemic) [Example 104, N-(2-chloro-5-(4-(2,6-dimethyl-4-morpholinyl)-6-quinolinyl)-3-pyridinyl)methanesulfonamide]
mTOR
  IC50: 0.0058 µM
[1]
  IC50: 0.0284 µM
PI3Kα
  Ki: 0.0083 µM

## CCN(Cc1noc(C2CC2)n1)c1ccnc2ccc(-c3cnc(Cl)c(NS(C)(=O)=O)c3)cc12 [Example 77, N-(2-chloro-5-(4-(((5-cyclopropyl-1,2,4-oxadiazol-3-yl)methyl)(ethyl)amino)-6-quinolinyl)-3-pyridinyl)methanesulfonamide]
mTOR
  IC50: 0.0677 µM
[1]
  IC50: 1.93 µM
PI3Kα
  Ki: 0.0184 µM

## CCN(CCC#N)c1ccnc2ccc(-c3cnc(Cl)c(NS(C)(=O)=O)c3)cc12 [Example 78, N-(2-chloro-5-(4-((2-cyanoethyl)(ethyl)amino)-6-quinolinyl)-3-pyridinyl)methanesulfonamide]
mTOR
  IC50: 0.0117 µM
[1]
  IC50: 0.193 µM
PI3Kα
  Ki: 0.0276 µM

## COC(C)(C)CNc1ccnc2ccc(-c3cnc(Cl)c(NS(C)(=O)=O)c3)cc12 [Example 79, N-(2-chloro-5-(4-((2-methoxy-2-methylpropyl)amino)-6-quinolinyl)-3-pyridinyl)methanesulfonamide]
mTOR
  IC50: 0.363 µM
[1]
  IC50: 2.83 µM
PI3Kα
  Ki: 0.0823 µM

## Cc1ccccc1OC1CCN(c2ccnc3ccc(-c4cnc(Cl)c(NS(C)(=O)=O)c4)cc23)C1 (centres unmarked) [Example 80, N-(2-chloro-5-(4-(3-(2-methylphenoxy)-1-pyrrolidinyl)-6-quinolinyl)-3-pyridinyl)methanesulfonamide]
mTOR
  IC50: 0.389 µM
[1]
  IC50: 0.704 µM
PI3Kα
  Ki: 0.0294 µM

## COCC1CCCN1c1ccnc2ccc(-c3cnc(Cl)c(NS(C)(=O)=O)c3)cc12 (centres unmarked) [Example 81, N-(2-chloro-5-(4-(2-(methoxymethyl)-1-pyrrolidinyl)-6-quinolinyl)-3-pyridinyl)methanesulfonamide]
mTOR
  IC50: 2.74 µM
[1]
  IC50: 2.71 µM
PI3Kα
  Ki: 0.368 µM

## CS(=O)(=O)Nc1cc(-c2ccc3nccc(N4CCC(c5ccccc5)CC4)c3c2)cnc1Cl [Example 82, N-(2-chloro-5-(4-(4-phenyl-1-piperidinyl)-6-quinolinyl)-3-pyridinyl)methanesulfonamide]
mTOR
  IC50: 0.0167 µM
[1]
  IC50: 0.364 µM
PI3Kα
  Ki: 0.0052 µM

## CC(c1ccccc1)N1CCN(c2ccnc3ccc(-c4cnc(Cl)c(NS(C)(=O)=O)c4)cc23)CC1 (centres unmarked) [Example 83, N-(2-chloro-5-(4-(4-(1-phenylethyl)-1-piperazinyl)-6-quinolinyl)-3-pyridinyl)methanesulfonamide]
mTOR
  IC50: 0.0821 µM
[1]
  IC50: 0.758 µM
PI3Kα
  Ki: 0.0136 µM

## CS(=O)(=O)Nc1cc(-c2ccc3nccc(N4CCN(Cc5ccc6c(c5)OCO6)CC4)c3c2)cnc1Cl [Example 84, N-(5-(4-(4-(1,3-benzodioxol-5-ylmethyl)-1-piperazinyl)-6-quinolinyl)-2-chloro-3-pyridinyl)methanesulfonamide]
mTOR
  IC50: 0.0487 µM
[1]
  IC50: 0.289 µM
PI3Kα
  Ki: 0.0225 µM

## CN(Cc1cccc(F)c1)c1ccnc2ccc(-c3cnc(Cl)c(NS(C)(=O)=O)c3)cc12 [Example 85, N-(2-chloro-5-(4-((3-fluorobenzyl)(methyl)amino)-6-quinolinyl)-3-pyridinyl)methanesulfonamide]
mTOR
  IC50: 0.0621 µM
[1]
  IC50: 1.66 µM
PI3Kα
  Ki: 0.0158 µM

## CS(=O)(=O)Nc1cc(-c2ccc3nccc(N4Cc5ccc(F)cc5C4)c3c2)cnc1Cl [Example 86, N-(2-chloro-5-(4-(5-fluoro-1,3-dihydro-2H-isoindol-2-yl)-6-quinolinyl)-3-pyridinyl)methanesulfonamide]
mTOR
  IC50: 0.162 µM
[1]
  IC50: 0.667 µM
PI3Kα
  Ki: 0.016 µM

## O=c1c2cccnc2ccn1-c1cnc(Cl)c(NS(=O)(=O)c2ccc(F)cc2)c1 [Example 137, N-(2-chloro-5-(5-oxo-1,6-naphthyridin-6(5H)-yl)-3-pyridinyl)-4-fluorobenzenesulfonamide]
[1]
  IC50: 2.98 µM
PI3Kα
  Ki: 0.548 µM
